The values below come from article PMC10177926, “Leveraging the 3-Chloro-4-fluorophenyl Motif to Identify Inhibitors of Tyrosinase from Agaricus bisporus” (International Journal of Molecular Sciences, 2023).

SMILES strings stand for the structures.

tyrosinase from Agaricus bisporus (AbTYR), sequence (C7FF04 2-392): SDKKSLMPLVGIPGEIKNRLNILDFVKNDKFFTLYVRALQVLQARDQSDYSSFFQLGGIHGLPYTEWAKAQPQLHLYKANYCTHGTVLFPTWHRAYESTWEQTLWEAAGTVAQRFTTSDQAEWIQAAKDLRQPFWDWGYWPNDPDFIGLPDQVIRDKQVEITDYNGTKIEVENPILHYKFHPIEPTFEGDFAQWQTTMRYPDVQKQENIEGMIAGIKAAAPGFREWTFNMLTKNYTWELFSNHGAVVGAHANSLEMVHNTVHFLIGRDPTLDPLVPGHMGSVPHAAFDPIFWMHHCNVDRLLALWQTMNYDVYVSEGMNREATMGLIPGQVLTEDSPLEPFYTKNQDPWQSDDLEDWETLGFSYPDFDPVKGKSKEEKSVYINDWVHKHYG

The target in one series is tyrosinase from Agaricus bisporus (AbTYR) (Agaricus bisporus, UniProt C7FF04). Put plainly: diphenolase inhibition of AbTYR (L-DOPA substrate, absorbance at 475 nm). In kind it is biochemical. As to conditions: diphenolase activity. On the procedure:
Mushroom tyrosinase (EC 1.14.18.1) was supplied by Merck (Cat. No. T3824). In vitro assay was performed according to the method of Mirabile et al.. Each sample (0.05 mL) at different concentrations (0.10–200 μM) was mixed with 0.5 mL of L-DOPA solution (1.25 mM) and 0.9 mL of phosphate buffer solution (pH 6.8). After a 10 min incubation at 25 °C, 0.05 mL of an aqueous solution of the enzyme was added to the mixture. […] The inhibition rate was calculated with the following mathematical equation:Inhibition % = (A − B/A) × 100 where A = absorbance of negative control and B = absorbance of test sample. Finally, IC50 values were determined by interpolation of the dose–response curves.
Consider `Nn1c(SCc2ccc(F)cc2Cl)nnc1-c1ccncc1` [3c, 3-((2-Chloro-4-fluorobenzyl)thio)-5-(pyridin-4-yl)-4H-1,2,4-triazol-4-amine], for which the “AbTYR inhibitory effect, result in words” value is “inhibitory effects dramatically disappeared”.

Test system in the next series: not given
Test: not given
Settings: not given
Turning to `O=C(c1ccc(Cl)cc1Cl)N1CCN(Cc2ccc(F)c(Cl)c2)CC1` [1d, (4-(3-Chloro-4-fluorobenzyl)piperazin-1-yl)(2,4-dichlorophenyl)methanone], the melting point (in general, the temperature of the solid-liquid transition) lay within 121 to 124 °C. With `Nn1c(SCc2ccc(F)cc2Cl)nnc1-c1ccncc1` [3c, 3-((2-Chloro-4-fluorobenzyl)thio)-5-(pyridin-4-yl)-4H-1,2,4-triazol-4-amine], the melting point lay in the range of 171 to 172 °C. Turning to `c1ccc(SCSc2ccccc2)cc1` [4b, Phenylsulfanylmethylsulfanylbenzene], the melting point fell in the range of 34 to 35 °C. In the case of `O=C(c1cc(F)ccc1C(F)(F)F)N1CCN(Cc2ccc(F)c(Cl)c2)CC1` [1e, (4-(3-Chloro-4-fluorobenzyl)piperazin-1-yl)(5-fluoro-2-(trifluoromethyl)phenyl)methanone], the melting point lay in the range of 133 to 135 °C. As to `CC(C(=O)N1CCN(c2ccc(O)cc2)CC1)N1CCN(Cc2ccc(F)c(Cl)c2)CC1` (stereo not shown) [2d, 2-(4-(3-Chloro-4-fluorobenzyl)piperazin-1-yl)-1-(4-(4-hydroxyphenyl)piperazin-1-yl)propan-1-one], the melting point fell in the range of 172 to 174 °C.

Compound `Nn1c(SCc2ccc(F)c(Cl)c2)nnc1-c1ccncc1` [3b, 3-(3-Chloro-4-fluorobenzylthio)-5-(pyridin-4-yl)-4H-1,2,4-triazol-4-amine] yielded a melting point of 164 to 165 °C. In the case of `O=C(CN1CCN(Cc2ccc(F)c(Cl)c2)CC1)N1CCN(c2ccc(O)cc2)CC1` [2c, 2-(4-(3-Chloro-4-fluorobenzyl)piperazin-1-yl)-1-(4-(4-hydroxyphenyl)piperazin-1-yl)ethanone], the melting point is 165 to 168 °C. For the compound `O=C(c1cc2ccccc2s1)N1CCN(Cc2ccc(F)c(Cl)c2)CC1` [1f, Benzo[b]thiophen-2-yl(4-(3-chloro-4-fluorobenzyl)piperazin-1-yl)methanone], the melting point is 111 to 113 °C. The compound `Nn1c(SCc2ccc(F)c(Cl)c2)nnc1-c1ccccc1` [3d, 3-(3-Chloro-4-fluorobenzylthio)-5-phenyl-4H-1,2,4-triazol-4-amine] gave a melting point of 164 to 166 °C.
